Values after ≈ are worked out from the molar mass of the structure shown.
Legend:
[1] = test system: Escherichia coli; experiment: in vivo effective dose in experimental infections in mice; settings: ip, E. coli infection in mice
Text: (§1) The in vivo effective dose […] in mg./kg. for representative antibiotics of the formula I has been determined in experimental infections in mice. Table II lists the ED50 dose vs. Streptococcus pyogenes and Escherichia coli infections. In the table, the antibiotics are identified with the R", R', and R1 -R3 terms of Formula I. |Test Compound ED50 (mg/kg × 2) i.p.

[2] = test system: Streptococcus pyogenes; experiment: as above; settings: ip, S. pyogenes infection in mice
Text: as §1

[3] = test system: Escherichia coli; experiment: Gradient Plate in vitro method, MIC; format: cell-based; settings: read-out: Minimum Inhibitory Concentration
Text: (§2) The values in the table are the minimum inhibitory concentrations (MIC) for the test compounds against the indicated microorganisms. The MIC values were obtained in the Gradient Plate in vitro method for determining antibiotic activity.

[4] = test system: Serratia marcescens; experiment: Gradient Plate in vitro method, MIC; format: cell-based; settings: read-out: Minimum Inhibitory Concentration
Text: as §2

[5] = test system: X400; experiment: Gradient Plate in vitro method, MIC; format: cell-based; settings: X400, methicillin resistant Staphylococcus, read-out: Minimum Inhibitory Concentration
Text: as §2, with “The antibiotic activity of the cephalosporin compounds of the formula I is illustrated by the data presented in Table I for representative compounds. The values” for “The values”
(§3) Minimum Inhibitory Concentration (mcg./ml.)
(§4) ^1 Test organisms V41, V32 and V84 are penicillin resistant
(§5) Staphyloccus, X400 is a methicillin resistant Staphylococcus.

[6] = test system: Staphylococcus aureus; experiment: standard gear agar dilution method, MIC; format: cell-based
Text: In the standard gear agar dilution method, the MIC values for the above test compounds A through E against Staphylococcus aureus were as follows: A, 2; B, 1; C, 0.5; D, 2; and E, 0.5 mcg./m1.

[7] = test system: V32; experiment: Gradient Plate in vitro method, MIC; format: cell-based, penicillin resistant Staphyloccus; settings: V32, penicillin resistant Staphylococcus, read-out: Minimum Inhibitory Concentration
Text: as §2, with “The antibiotic activity of the cephalosporin compounds of the formula I is illustrated by the data presented in Table I for representative compounds. The values” for “The values”
as §3, §4, §5

[8] = test system: V84; experiment: Gradient Plate in vitro method, MIC; format: cell-based, penicillin resistant Staphyloccus; settings: V84, penicillin resistant Staphylococcus, read-out: Minimum Inhibitory Concentration
Text: as §2, with “The antibiotic activity of the cephalosporin compounds of the formula I is illustrated by the data presented in Table I for representative compounds. The values” for “The values”
as §3, §4, §5

[9] = test system: V41; experiment: Gradient Plate in vitro method, MIC; format: cell-based, penicillin resistant Staphyloccus; settings: V41, penicillin resistant Staphylococcus, read-out: Minimum Inhibitory Concentration
Text: as §2, with “The antibiotic activity of the cephalosporin compounds of the formula I is illustrated by the data presented in Table I for representative compounds. The values” for “The values”
as §3, §4, §5

[10] = test system: Pseudomonas aeruginosa; experiment: Gradient Plate in vitro method, MIC; format: cell-based; settings: read-out: Minimum Inhibitory Concentration
Text: as §2, with “The antibiotic activity of the cephalosporin compounds of the formula I is illustrated by the data presented in Table I for representative compounds. The values” for “The values”
as §3

[11] = test system: Salmonella heidelberg; experiment: Gradient Plate in vitro method, MIC; format: cell-based; settings: Salmonella enterica, read-out: Minimum Inhibitory Concentration
Text: as §2, with “The antibiotic activity of the cephalosporin compounds of the formula I is illustrated by the data presented in Table I for representative compounds. The values” for “The values”
as §3

[12] = test system: Shigella sp.; experiment: Gradient Plate in vitro method, MIC; format: cell-based; settings: read-out: Minimum Inhibitory Concentration
Text: as §2, with “The antibiotic activity of the cephalosporin compounds of the formula I is illustrated by the data presented in Table I for representative compounds. The values” for “The values”
as §3

[13] = test system: Aerobacter aerogenes; experiment: Gradient Plate in vitro method, MIC; format: cell-based; settings: Klebsiella aerogenes, read-out: Minimum Inhibitory Concentration
Text: as §2, with “The antibiotic activity of the cephalosporin compounds of the formula I is illustrated by the data presented in Table I for representative compounds. The values” for “The values”
as §3

[14] = test system: Klebsiella pneumoniae; experiment: Gradient Plate in vitro method, MIC; format: cell-based; settings: read-out: Minimum Inhibitory Concentration
Text: as §2, with “The antibiotic activity of the cephalosporin compounds of the formula I is illustrated by the data presented in Table I for representative compounds. The values” for “The values”
as §3

[15] = Electrometric titration in 66 percent DMF; format: physicochemical; settings: 66% dmf

CNC(=O)N(C)C(=O)NC(C(=O)NC1C(=O)N2C(C(=O)O)=C(CSc3nnnn3C)CSC12)c1ccc(O)cc1 (stereo not drawn) [Test Compound A, 7-[α-(3-methylcarbamoyl-3-methyl-1-ureido)-α-(4-hydroxyphenyl)acetamido]-3-(1-methyl-1H-tetrazole-5-ylthiomethyl)-3-cephem-4-carboxylic acid]
ED50 [1]: 72 mg/kg | ED50 [2]: 0.7 mg/kg | MIC [3]: 1 µg/mL (≈ 1.69 µM) | MIC [4]: 8 µg/mL (≈ 13.5 µM) | MIC [5]: > 20 µg/mL | MIC [6]: 2 µg/mL (≈ 3.38 µM) | MIC [7]: 4.8 µg/mL (≈ 8.11 µM) | MIC [8]: 0.6 µg/mL (≈ 1.01 µM) | MIC [9]: 4 µg/mL (≈ 6.76 µM) | MIC [10]: 18 µg/mL (≈ 30.4 µM) | MIC [11]: 1 µg/mL (≈ 1.69 µM) | MIC [12]: 1 µg/mL (≈ 1.69 µM) | MIC [13]: 1 µg/mL (≈ 1.69 µM) | MIC [14]: 3.5 µg/mL (≈ 5.92 µM)

CNC(=O)NC(=O)NC(C(=O)NC1C(=O)N2C(C(=O)O)=C(CSc3nnc(C)s3)CSC12)c1ccc(O)cc1 (stereo not drawn) [Example 14, 7-[α-(3-methylcarbamoyl-1-ureido)-α-(4-hydroxyphenyl)acetamido]-3-(5-methyl-1,3,4-thiadiazole-2-ylthiomethyl)-3-cephem-4-carboxylic acid]
ED50 [1]: < 72 mg/kg | ED50 [2]: 0.7 mg/kg

CNC(=O)N(C)C(=O)NC(C(=O)NC1C(=O)N2C(C(=O)O)=C(CSc3nnc(C)s3)CSC12)c1ccc(O)cc1 (stereo not drawn) [Test Compound B, 7-[α-(3-methylcarbamoyl-3-methyl-1-ureido)-α-(4-hydroxyphenyl)acetamido]-3-(5-methyl-1,3,4-thiadiazole-2-ylthiomethyl)-3-cephem-4-carboxylic acid]
MIC [3]: 4 µg/mL (≈ 6.58 µM) | MIC [4]: 19 µg/mL (≈ 31.3 µM) | MIC [5]: > 20 µg/mL | pKa ([15]; first of two titratable groups): 4.8 | pKa ([15]; second of two titratable groups): 12.2 | MIC [6]: 1 µg/mL (≈ 1.65 µM) | MIC [7]: 10 µg/mL (≈ 16.5 µM) | MIC [8]: 0.6 µg/mL (≈ 0.987 µM) | MIC [9]: 8 µg/mL (≈ 13.2 µM) | MIC [10]: 28 µg/mL (≈ 46.1 µM) | MIC [11]: 2 µg/mL (≈ 3.29 µM) | MIC [12]: 3 µg/mL (≈ 4.94 µM) | MIC [13]: 4 µg/mL (≈ 6.58 µM) | MIC [14]: 4 µg/mL (≈ 6.58 µM)

Cn1nnnc1SCC1=C(C(=O)O)N2C(=O)C(NC(=O)C(NC(=O)NC(N)=O)c3ccccc3)C2SC1 (centres unmarked) [Test Compound H]
ED50 [1]: < 72 mg/kg | ED50 [2]: 0.7 mg/kg | MIC [3]: 16 µg/mL (≈ 29.2 µM) | MIC [4]: > 200 µg/mL | MIC [5]: > 20 µg/mL | MIC [7]: 4 µg/mL (≈ 7.3 µM) | MIC [8]: 1 µg/mL (≈ 1.83 µM) | MIC [9]: 2.5 µg/mL (≈ 4.57 µM) | MIC [10]: 60 µg/mL (≈ 110 µM) | MIC [11]: 12 µg/mL (≈ 21.9 µM) | MIC [12]: 9.5 µg/mL (≈ 17.3 µM) | MIC [13]: 15 µg/mL (≈ 27.4 µM) | MIC [14]: 35 µg/mL (≈ 63.9 µM)

CC(=O)OCC1=C(C(=O)O)N2C(=O)C(NC(=O)C(NC(=O)N3CCNC3=O)c3ccccc3)[C@H]2SC1 (stereo partly drawn) [Test Compound E, 7-[α-(imidazolidine-2-one-1-ylcarbonylamino)-α-phenylacetamido]-3-acetoxymethyl-3-cephem-4-carboxylic acid]
MIC [3]: 18 µg/mL (≈ 34.8 µM) | MIC [4]: 42 µg/mL (≈ 81.2 µM) | MIC [5]: > 20 µg/mL | MIC [6]: 0.5 µg/mL (≈ 0.966 µM) | MIC [7]: 5 µg/mL (≈ 9.66 µM) | MIC [8]: 0.4 µg/mL (≈ 0.773 µM) | MIC [9]: 2 µg/mL (≈ 3.86 µM) | MIC [10]: 24 µg/mL (≈ 46.4 µM) | MIC [11]: 11 µg/mL (≈ 21.3 µM) | MIC [12]: 10 µg/mL (≈ 19.3 µM) | MIC [13]: 10 µg/mL (≈ 19.3 µM) | MIC [14]: 12 µg/mL (≈ 23.2 µM)

CNC(=O)N(C)C(=O)NC(C(=O)NC1C(=O)N2C(C(=O)O)=C(COC(C)=O)CSC12)c1ccccc1 (stereo not drawn) [Test Compound C, 7-[α-(3-methylcarbamoyl-3-methyl-1-ureido)-α-phenylacetamido]-3-acetoxymethyl-3-cephem-4-carboxylic acid]
ED50 [1]: < 7.2 mg/kg | ED50 [2]: < 7.2 mg/kg | MIC [3]: 11 µg/mL (≈ 21.2 µM) | MIC [4]: 80 µg/mL (≈ 154 µM) | MIC [5]: > 20 µg/mL | MIC [6]: 0.5 µg/mL (≈ 0.962 µM) | MIC [7]: 1 µg/mL (≈ 1.92 µM) | MIC [8]: 0.5 µg/mL (≈ 0.962 µM) | MIC [9]: 1 µg/mL (≈ 1.92 µM) | MIC [10]: 80 µg/mL (≈ 154 µM) | MIC [11]: 13 µg/mL (≈ 25 µM) | MIC [12]: 7 µg/mL (≈ 13.5 µM) | MIC [13]: 14 µg/mL (≈ 26.9 µM) | MIC [14]: 14 µg/mL (≈ 26.9 µM)

CNC(=O)N(C)C(=O)NC(C(=O)NC1C(=O)N2C(C(=O)O)=C(CSc3nnnn3C)CSC12)c1cccs1 (stereo not drawn) [Test Compound K, 7-[α-(3-methylcarbamoyl-3-methyl-1-ureido)-α-(2-thienyl)acetamido]-3-(1-methyl-1H-tetrazole-5-ylthiomethyl)-3-cephem-4-carboxylic acid]
MIC [3]: 2.5 µg/mL (≈ 4.3 µM) | MIC [4]: 19.5 µg/mL (≈ 33.5 µM) | MIC [5]: > 20 µg/mL | MIC [7]: 3 µg/mL (≈ 5.16 µM) | MIC [8]: 3 µg/mL (≈ 5.16 µM) | MIC [9]: 3 µg/mL (≈ 5.16 µM) | MIC [10]: 21.5 µg/mL (≈ 37 µM) | MIC [11]: 10 µg/mL (≈ 17.2 µM) | MIC [12]: 1 µg/mL (≈ 1.72 µM) | MIC [13]: 1 µg/mL (≈ 1.72 µM) | MIC [14]: 0.9 µg/mL (≈ 1.55 µM)

Reference: patent US4224442A, “7-Ureido acetamido substituted cephalosporin antibiotics” (Eli Lilly and Company, priority 1975, dated 1980)
